In patent publication US20120101024A1, “Methods and Compositions for Differentiating Embryonic Stem Cells” (REGENERATIVE RESEARCH FOUNDATION, priority 2010, published 2012):

Tests used:
[1] = tested on: hESCs; assay: Dual SMAD protocol with substituted factors, PAX6 and SMAD1 at day 7 (BMP signaling); assay type: cell-based, human; conditions: after 7 days of differentiation
Method: (§1) Feeder free neural induction was carried out as previously described (Chambers et al., supra). Briefly, hESC cultures (WA-09 cells) were disaggregated using Accutase (Innovative Cell Technologies, Inc., San Diego, Calif.) for 20 minutes, washed using hESC media and pre-plated on gelatin for 1 hour at 37° C. in the presence of ROCK inhibitor (Sigma, Carlsbad, Calif.) to remove MEFs. The nonadherent hESCs were washed and plated at a density of 20,000 cells/cm^2 on BD Matrigel™ matrix (BD Biosciences, San Diego, Calif.) coated dishes in MEF conditioned hESCs media (CM) spiked with 10 ng/mL of FGF-2 and ROCK-inhibitor (Sigma). The ROCK inhibitor was withdrawn, and hESCs were allowed to expand in CM for 3 days or until they were nearly confluent. The initial differentiation media conditions included knock out serum replacement (KSR) media with […] TGF-β inhibitor (SB431542, Tocris) and 500 ng/mL of Noggin (R&D Systems). Upon day 5 of differentiation, increasing amounts of N2 media (Fasano et al., 2010, supra) (25%, 50%, 75%) was added to the KSR media every two days while maintaining 500 ng/mL of Noggin and TGF-β inhibitor.
(§2) Antibodies used for performing immunocytochemistry, methods for which are described in Fasano et al., 2007, and 2010, supra, were obtained commercially as follows: PAX6 (Developmental Studies Hybridoma Bank (Iowa City, Iowa)), SOX2 (Santa Cruz Biotechnology (SCBT) (Santa Cruz, Calif.)), Nestin (Chemicon (Temecula, Calif.)), Nanog (SCBT), OCT-4 (SCBT), SMAD3 and SMAD1 (Cell Signaling Technology, Inc., Danvers, Mass.), FOXG1 (NeuraCell, Rensselaer, N.Y.), SSEA-4, SSEA-3, SSEA-1 (BD Pharmingen (San Diego, Calif.)). Alexa secondary antibodies were purchased from Invitrogen.
The directed neural differentiation paradigm used in this study employed the use of both a TGF-beta blocker (SB431542) and Noggin, a BMP blocker, as it has been shown that blocking only TGF-beta is not sufficient to drive neural commitment. While CRIPTO works to enhance NODAL signaling, it has been shown that NODAL itself can bind up BMPs and thus lower BMP signaling. Because NPTX1 depletes available CRIPTO in the extracelluar space and cell surface, it seemed plausible that the resulting excess Nodal could dampen BMP signaling. To test whether NPTX1 expression can reduce BMP signaling, the dual SMAD protocol was employed to generate neural cells (addition of Noggin and TGF-beta inhibitor SB431542).
In one condition, Noggin was substituted with a CRIPTO blocking antibody to see if CRIPTO loss could result in robust neural differentiation. As a positive control for BMP signaling, another group was treated with high levels of BMP7. After 7 days of differentiation, neural marker expression and SMAD1 levels were determined.

[2] = tested on: hESCs (WA-09); assay: Neural induction of hESCs (dual SMAD inhibition protocol), marker expression by qRT-PCR / immunostaining; assay type: cell-based, human; conditions: for expression of the neural genes SOX1 and PAX6 (mRNA) compared to control: control empty vector
Method: as §1
(§3) Total RNA was extracted using an RNeasy kit (Qiagen). For each sample, 1 μg of total RNA was treated for DNA contamination and reverse transcribed using Quantitect first strand kit (Qiagen). Amplified material was detected using Taqman probes and PCR mix (ABI) on a Mastercycler RealPlex2 (Eppendorf). All results were normalized to a HPRT control and were from 3 technical replicates of 3 independent biological samples at each data point.
Cells were fixed using 4% paraformaldehyde for 15 minutes, washed with PBS, permeabilized using 0.3% Triton X in PBS, and blocked using 10% normal goat serum. Primary antibody used for microscopy was PAX6 (DSHB).
hESCs (WA-09; passages 35) were dissociated and plated on Matrigel with the ROCK inhibitor as single cells. 24 hrs post plating the ESCs were transduced with either control (empty vector), NPTX1 shRNA, or NPTX10RF containing vectors. One (1) week later, GFP-expressing colonies were manually picked and plated on MEFs. Cells were then expanded, tested for mycoplasma.
as §2

[3] = tested on: NPTX1; assay: NPTX1 knock down by lentiviral shRNA in hESCs, message level; assay type: cell-based, human; conditions: day 3 of neural differentiation
Method: as §1, §3
NPTX1 open reading frame (ORF) was generated by PCR. This fragment was cloned into the BamH1 and NotI sites of the lentiviral vector, pCDH-EF1-MCS-IRES GFP(SBI Biosciences). […] Viral titers were measured by serial dilution on NIH 3T3 cells (ATCC Deposit No. CRL-1658) followed by flow cytometric analysis after 72 hours. […]

[4] = tested on: hESCs (WA-09); assay: Neurosphere assay on cells isolated at day 7 of differentiation; assay type: cell-based, human
Text: To assess the neural character of the cells generated, the resulting cells were isolated at day 7 of differentiation and subjected to a neurosphere assay. […] In control conditions, the neural genes PAX6 and SOX1 started to appear around day 4 (FIGS. 4B and 4C, respectively).

[5] = target: T1, CRIPTO (Homo sapiens, UniProt P13385); assay: Co-immunoprecipitation of CRIPTO with NPTX1-His from membrane fraction of hESCs; assay type: binding; conditions: conditioned media applied to hESCs for 1 hour
T1 construct: endogenous in cells; host or cells: hESCs (WA-09), membrane fraction of lysed cells
T1 sequence (P13385 31-150): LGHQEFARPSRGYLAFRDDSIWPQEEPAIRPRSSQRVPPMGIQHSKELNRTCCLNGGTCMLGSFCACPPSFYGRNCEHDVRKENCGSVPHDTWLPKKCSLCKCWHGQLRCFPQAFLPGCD

[6] = tested on: hESCs; assay: Recombinant CRP added to hESCs in neural differentiation conditions, mRNA at day 7; assay type: cell-based, human; conditions: 2 μg/ml, administered on days 0, 3 and 5; 7 days
Method: as §3
C-Reactive Protein (CRP) is a pentraxin protein that is found in the blood, and levels of which rise in response to stress and/or inflammation. […] It was also reported that, when CRP levels went over a particular threshold at 4-weeks of gestation, the time at which nervous system development occurs, an increased rate of miscarriage was identified. In the present Example, it was thus tested whether another member of the pentraxin protein family, in addition to NPTX1 might play an important role in neural differentiation. Recombinant CRP(R&D Systems, 2 μg/ml) or a vehicle control was added to hESCs cultured in conditions that would allow for neural development to proceed normally in the dish. […] Such acceleration of human development could be a cue for miscarriage and/or neural birth defects in fetuses exposed to high levels of CRP during this critical time of gestation.

[7] = day 7 of neural differentiation

NC(=O)c1ccc(-c2nc(-c3ccc4c(c3)OCO4)c(-c3ccccn3)[nH]2)cc1 [SB431542, reference compound]
PAX6 expression [1]: few PAX6 cells | pSMAD1 / SMAD1 levels [1]: high pSMAD1 levels

shRNA1: lentiviral NPTX1 shRNA, AGT AAA GAG TGG AGA AAG A (SEQ ID NO: 42); did not knock down, used as negative control (AGTAAAGAGTGGAGAAAGA)
expression of the neural genes SOX1 and PAX6 (mRNA) compared to control [2, 7]: no effect | knock down of NPTX1 at the message level [3]: did not knock down NPTX1

shRNA2: lentiviral NPTX1 shRNA, ACG TGT AGG TTG AGA ACA A (SEQ ID NO: 43) (ACGTGTAGGTTGAGAACAA)
SMAD2 and SMAD3 gene expression (RT-PCR) ([2]; NPTX1 knockdown hESCs): elevated gene expression | NANOG and OCT4 levels compared to control ([2]; day 7 of differentiation): elevated levels | CRIPTO expression compared to control-treated cells [2, 7]: 20 fold | expression of the neural genes SOX1 and PAX6 (mRNA) compared to control [2, 7]: significantly reduced levels | gene expression of PAX6 and SOX1 along the time course compared to control ([2]; time course of neural differentiation): much delayed and at much lower levels | knock down of NPTX1 at the message level [3]: successfully knocked down NPTX1 | number of neurospheres compared to control [4]: significant reduction

shRNA3: lentiviral NPTX1 shRNA, GAG AAA GGT CAG AAA GAC A (SEQ ID NO: 44) (GAGAAAGGTCAGAAAGACA)
expression of the neural genes SOX1 and PAX6 (mRNA) compared to control [2, 7]: significantly reduced levels | expression of early neuroectodermal markers GBX2 and SOX2 (qRT-PCR) ([2]; days 0-7, days 5 and 7 statistically significant): drastic reduction | knock down of NPTX1 at the message level [3]: successfully knocked down NPTX1

B1: NPTX1-His: NPTX1 protein with six HIS amino acids on the N-terminus, in conditioned media (protein)
chain: HHHHHHQDFGPTRFICTSVPVDADMCAASVAAGGAEELRSSVLQLRETVLQQKETILSQKETIRELTAKLGRCESQSTLDPGAGEARAGGGRKQPGSGKNTMGDLSRTPAAETLSQLGQTLQSLKTRLENLEQYSRLNSSSQTNSLKDLLQSKIDELERQVLSRVNTLEEGKGGPRNDTEERVKIETALTSLHQRISELEKGQKDNRPGDKFQLTFPLRTNYMYAKVKKSLPEMYAFTVCMWLKSSATPGVGTPFSYAVPGQANELVLIEWGNNPMEILINDKVAKLPFVINDGKWHHICVTWTTRDGVWEAYQDGTQGGSGENLAPYHPIKPQGVLVLGQEQDTLGGGFDATQAFVGELAHFNIWDRKLTPGEVYNLATCSTKALSGNVIAWAESHIEIYGGATKWTFEACRQIN
co-immunoprecipitation with CRIPTO [5]: coimmunoprecipitate

B2: BMP7: positive control for BMP signaling, high levels of BMP7 (protein, UniProt P18075 293-431, looked up)
Bone morphogenetic protein 7: STGSKQRSQNRSKTPKNQEALRMANVAENSSSDQRQACKKHELYVSFRDLGWQDWIIAPEGYAAYYCEGECAFPLNSYMNATNHAIVQTLVHFINPETVPKPCCAPTQLNAISVLYFDDSSNVILKKYRNMVVRACGCH
PAX6 expression [1]: few PAX6 cells | pSMAD1 / SMAD1 levels [1]: high pSMAD1 levels

B3: CRP: recombinant C-reactive protein (R&D Systems), a pentraxin protein (protein, UniProt P02741 19-224, looked up)
C-reactive protein: QTDMSRKAFVFPKESDTSYVSLKAPLTKPLKAFTVCLHFYTELSSTRGYSIFSYATKRQDNEILIFWSKDIGYSFTVGGSEILFEVPEVTVAPVHICTSWESASGIVEFWVDGKPRVRKSLKKGYTVGAEASIILGQEQDSFGGNFEGSQSLVGDIGNVNMWDFVLSPDEINTIYLGGPFSPNVLNWRALKYEVQGEVFTKPQLWP
NPTX1 expression [6]: increase | neural marker PAX6 compared to the control [6]: striking up-regulation
